Measured values published in paper PMC3069034, “Structuring Detergents for Extracting and Stabilizing Functional Membrane Proteins” (PLoS ONE, 2011).

Molecular target: BmrA (Bacillus subtilis, UniProt O06967)
Test: intrinsic tryptophan fluorescence quenching of purified protein
Assay type: binding
Source text: intrinsic tryptophan fluorescence quenching of purified protein on BmrA | the binding of daunorubicin was similar for both detergents.

Sequence of BmrA (O06967 whole entry): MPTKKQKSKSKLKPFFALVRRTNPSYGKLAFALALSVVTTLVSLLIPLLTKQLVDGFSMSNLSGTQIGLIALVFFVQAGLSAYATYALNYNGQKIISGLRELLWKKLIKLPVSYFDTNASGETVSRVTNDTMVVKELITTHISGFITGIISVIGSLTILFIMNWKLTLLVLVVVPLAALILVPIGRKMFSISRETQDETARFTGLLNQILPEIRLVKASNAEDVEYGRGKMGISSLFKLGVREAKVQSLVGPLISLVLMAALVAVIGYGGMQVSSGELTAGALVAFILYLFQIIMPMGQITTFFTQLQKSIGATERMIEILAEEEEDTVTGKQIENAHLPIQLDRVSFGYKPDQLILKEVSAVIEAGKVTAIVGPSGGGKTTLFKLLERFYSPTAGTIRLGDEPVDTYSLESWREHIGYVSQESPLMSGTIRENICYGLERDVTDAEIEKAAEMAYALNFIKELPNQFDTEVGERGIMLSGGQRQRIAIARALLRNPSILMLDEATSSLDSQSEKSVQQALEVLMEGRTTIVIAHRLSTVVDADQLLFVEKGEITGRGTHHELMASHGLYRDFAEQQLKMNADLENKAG

## COc1cccc2c1C(=O)c1c(O)c3c(c(O)c1C2=O)C[C@@](O)(C(C)=O)C[C@@H]3O[C@H]1C[C@H](N)[C@H](O)[C@H](C)O1 [daunorubicin]
  Kd: 12.4 ± 0.8 µM
